Measurements: PubChem BioAssay AID2060510 (Molecular Pharmacology Branch, DTP, NCI, 2025)

Tested on: 439559-082-T-J2-PDC spheroids viability
Assay: Anticancer human tumor 439559-082-T-J2-PDC patient-derived colon adenocarcinoma cell line growth inhibition [GQUAD]
Conditions: for IC50: curve of first compound; for viability, T/C: stronger effect = lower value
Procedure, shortened: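 Viability of tumor cells grown as complex spheroids with endothelial and stromal cells, exposed to drug combinations. Top concentration at or near clinical Cmax (else 10 microM), diluted in half-log increments.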

[1] = second compound 0.0316 µM, first compound 0.0316 µM
[2] = second compound 0.0316 µM, first compound 0.1 µM
[3] = second compound 0.0316 µM, first compound 0.316 µM
[4] = second compound 0.0316 µM, first compound 1 µM
[5] = second compound 0.0316 µM, first compound 3.16 µM
[6] = second compound 0.0316 µM, first compound 10 µM
[7] = second compound 0.1 µM, first compound 0.0316 µM
[8] = second compound 0.1 µM, first compound 0.1 µM
[9] = second compound 0.1 µM, first compound 0.316 µM
[10] = second compound 0.1 µM, first compound 1 µM
[11] = second compound 0.1 µM, first compound 3.16 µM
[12] = second compound 0.1 µM, first compound 10 µM
[13] = second compound 0.316 µM, first compound 0.0316 µM
[14] = second compound 0.316 µM, first compound 0.1 µM
[15] = second compound 0.316 µM, first compound 0.316 µM
[16] = second compound 0.316 µM, first compound 1 µM
[17] = second compound 0.316 µM, first compound 3.16 µM
[18] = second compound 0.316 µM, first compound 10 µM
[19] = second compound 1 µM, first compound 0.0316 µM
[20] = second compound 1 µM, first compound 0.1 µM
[21] = second compound 1 µM, first compound 0.316 µM
[22] = second compound 1 µM, first compound 1 µM
[23] = second compound 1 µM, first compound 3.16 µM
[24] = second compound 1 µM, first compound 10 µM
[25] = second compound 3.16 µM, first compound 0.0316 µM
[26] = second compound 3.16 µM, first compound 0.1 µM
[27] = second compound 3.16 µM, first compound 0.316 µM
[28] = second compound 3.16 µM, first compound 1 µM
[29] = second compound 3.16 µM, first compound 3.16 µM
[30] = second compound 3.16 µM, first compound 10 µM
[31] = second compound 10 µM, first compound 0.0316 µM
[32] = second compound 10 µM, first compound 0.1 µM
[33] = second compound 10 µM, first compound 0.316 µM
[34] = second compound 10 µM, first compound 1 µM
[35] = second compound 10 µM, first compound 3.16 µM
[36] = second compound 10 µM, first compound 10 µM
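Note: spheroids exposed to the agents for 7 days before readout.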
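Throughout, for viability, T/C: percent of luminescence signal in DMSO vehicle wells taken as 100% viability.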

## CC1COCCN1c1cc(C2(O)CC3CCC(C2)O3)c2cnn(-c3ccn[nH]3)c2n1 (centres undefined) + CN(C)c1ccc(Nc2c3ccc(NC(=O)CCN4CCCC4)cc3nc3cc(NC(=O)CCN4CCCC4)ccc23)cc1
Second compound 0.0316 µM
  IC50: 979 nM
Second compound 0.1 µM
  IC50: 1200 nM
Second compound 0.316 µM
  IC50: 959 nM
Second compound 1 µM
  IC50: 1160 nM
Second compound 3.16 µM
  IC50: 1080 nM
Second compound 10 µM
  IC50: 999 nM
[1]
  viability, T/C: 96.5%
[2]
  viability, T/C: 72.1%
[3]
  viability, T/C: 68.3%
[4]
  viability, T/C: 49.8%
[5]
  viability, T/C: 35.8%
[6]
  viability, T/C: 25.6%
[7]
  viability, T/C: 103%
[8]
  viability, T/C: 78.2%
[9]
  viability, T/C: 74.1%
[10]
  viability, T/C: 52.6%
[11]
  viability, T/C: 33.9%
[12]
  viability, T/C: 30.4%
[13]
  viability, T/C: 94.8%
[14]
  viability, T/C: 82.3%
[15]
  viability, T/C: 64.4%
[16]
  viability, T/C: 50.3%
[17]
  viability, T/C: 37%
[18]
  viability, T/C: 30.3%
[19]
  viability, T/C: 80.6%
[20]
  viability, T/C: 86.2%
[21]
  viability, T/C: 75.7%
[22]
  viability, T/C: 52%
[23]
  viability, T/C: 36.6%
[24]
  viability, T/C: 32.4%
[25]
  viability, T/C: 85.6%
[26]
  viability, T/C: 87.5%
[27]
  viability, T/C: 75.5%
[28]
  viability, T/C: 49%
[29]
  viability, T/C: 39.9%
[30]
  viability, T/C: 28.9%
[31]
  viability, T/C: 94.9%
[32]
  viability, T/C: 76.9%
[33]
  viability, T/C: 79.1%
[34]
  viability, T/C: 46%
[35]
  viability, T/C: 35%
[36]
  viability, T/C: 25.4%

## O=C(c1cc(Cc2n[nH]c(=O)c3ccccc23)ccc1F)N1CCN(C(=O)C2CC2)CC1 + CN(C)c1ccc(Nc2c3ccc(NC(=O)CCN4CCCC4)cc3nc3cc(NC(=O)CCN4CCCC4)ccc23)cc1
Second compound 0.0316 µM
  IC50: > 10000 nM
Second compound 0.1 µM
  IC50: > 10000 nM
Second compound 0.316 µM
  IC50: > 10000 nM
Second compound 1 µM
  IC50: > 10000 nM
Second compound 3.16 µM
  IC50: > 10000 nM
Second compound 10 µM
  IC50: > 10000 nM
[1]
  viability, T/C: 101%
[2]
  viability, T/C: 92.1%
[3]
  viability, T/C: 102%
[4]
  viability, T/C: 99.6%
[5]
  viability, T/C: 94.4%
[6]
  viability, T/C: 95.5%
[7]
  viability, T/C: 101%
[8]
  viability, T/C: 96.6%
[9]
  viability, T/C: 99.2%
[10]
  viability, T/C: 97.9%
[11]
  viability, T/C: 101%
[12]
  viability, T/C: 87.3%
[13]
  viability, T/C: 96.2%
[14]
  viability, T/C: 104%
[15]
  viability, T/C: 98.5%
[16]
  viability, T/C: 96.2%
[17]
  viability, T/C: 100%
[18]
  viability, T/C: 90.8%
[19]
  viability, T/C: 98.3%
[20]
  viability, T/C: 95.1%
[21]
  viability, T/C: 95.3%
[22]
  viability, T/C: 97.6%
[23]
  viability, T/C: 98.5%
[24]
  viability, T/C: 107%
[25]
  viability, T/C: 103%
[26]
  viability, T/C: 99.7%
[27]
  viability, T/C: 94.9%
[28]
  viability, T/C: 101%
[29]
  viability, T/C: 99.1%
[30]
  viability, T/C: 99.7%
[31]
  viability, T/C: 105%
[32]
  viability, T/C: 96.8%
[33]
  viability, T/C: 104%
[34]
  viability, T/C: 93%
[35]
  viability, T/C: 108%
[36]
  viability, T/C: 94.9%
